Legend:
[1] = target: T1, human mGlu5a receptor (Homo sapiens (Human), UniProt P41594); assay: Intracellular Ca2+ mobilization assay (mGlu5 PAM assay); format: cell-based; conditions: for EC50 (nM) mGlu5 PAM assay / mGlu5 PAM EC50 [nM]: HEK-293 cells with human mGlu5a, L-glutamate at EC20; for Activity profile: PAM = positive allosteric modulator, NAM = negative allosteric modulator; for Efficacy [%]: maximal response in % of maximal stimulatory effect of saturating L-glutamate
Description: A monoclonal HEK-293 cell line stably transfected with a cDNA encoding for the human mGlu5a receptor was generated; for the work with mGlu5 Positive Allosteric Modulators (PAMs), a cell line with low receptor expression levels and low constitutive receptor activity was selected to allow the differentiation of agonistic versus PAM activity. Cells were cultured according to standard protocols (Freshney, 2000) in Dulbecco's Modified Eagle Medium with high glucose supplemented with 1 mM glutamine, 10% (vol/vol) heat-inactivated bovine calf serum, Penicillin/Streptomycin, 50 μg/ml hygromycin and 15 μg/ml blasticidin (all cell culture reagents and antibiotics from Invitrogen, Basel, Switzerland).
About 24 hrs before an experiment, 5×10^4 cells/well were seeded in poly-D-lysine coated, black/clear-bottomed 96-well plates. The cells were loaded with 2.5 μM Fluo-4AM in loading buffer (1×HBSS, 20 mM HEPES) for 1 hr at 37° C. and washed five times with loading buffer. The cells were transferred into a Functional Drug Screening System 7000 (Hamamatsu, Paris, France), and 11 half logarithmic serial dilutions of test compound at 37° C. were added and the cells were incubated for 10-30 min. with on-line recording of fluorescence. Following this pre-incubation step, the agonist L-glutamate was added to the cells at a concentration corresponding to EC20 (typically around 80 μM) with on-line recording of fluorescence; in order to account for day-to-day variations in the responsiveness of cells, the EC20 of glutamate was determined immediately ahead of each experiment by recording of a full dose-response curve of glutamate.
Responses were measured as peak increase in fluorescence minus basal (i.e. fluorescence without addition of L-glutamate), normalized to the maximal stimulatory effect obtained with saturating concentrations of L-glutamate. Graphs were plotted with the % maximal stimulatory using XLfit, a curve fitting program that iteratively plots the data using Levenburg Marquardt algorithm. The single site competition analysis equation used was y=A+((B−A)/(1+((x/C)D))), where y is the % maximal stimulatory effect, A is the minimum y, B is the maximum y, C is the EC50, x is the log 10 of the concentration of the competing compound and D is the slope of the curve (the Hill Coefficient). From these curves the EC50 (concentration at which half maximal stimulation was achieved), the Hill coefficient as well as the maximal response in % of the maximal stimulatory effect obtained with saturating concentrations of L-glutamate were calculated.
A depression of the signal observed after addition of the EC20 concentration of L-glutamate was indicative of an inhibitory activity of the test compound.

[2] = target: T1, human mGlu5a receptor; assay: MPEP binding assay; conditions: [3H]MPEP 2 nM, 1 h at 4° C., EBNA cell membranes
Description: For binding experiments, cDNA encoding human mGlu 5a receptor was transiently transfected into EBNA cells using a procedure described by Schlaeger and Christensen [Cytotechnology 15:1-13 (1998)]. Cell membrane homogenates were stored at −80° C. until the day of assay where upon they were thawed and resuspended and polytronised in 15 mM Tris-HCl, 120 mM NaCl, 100 mM KCl, 25 mM CaCl2, 25 mM MgCl2 binding buffer at pH 7.4 to a final assay concentration of 20 μg protein/well.
Saturation isotherms were determined by addition of twelve [^3H]MPEP concentrations (0.04-100 nM) to these membranes (in a total volume of 200 μl) for 1 h at 4° C. Competition experiments were performed with a fixed concentration of [^3H]MPEP (2 nM) and IC50 values of test compounds evaluated using 11 concentrations (0.3-10,000 nM). Incubations were performed for 1 h at 4° C.
At the end of the incubation, membranes were filtered onto unifilter (96-well white microplate with bonded GF/C filter preincubated 1 h in 0.1% PEI in wash buffer, Packard BioScience, Meriden, Conn.) with a Filtermate 96 harvester (Packard BioScience) and washed 3 times with cold 50 mM Tris-HCl, pH 7.4 buffer. Nonspecific binding was measured in the presence of 10 μM MPEP. The radioactivity on the filter was counted (3 min) on a Packard Top-count microplate scintillation counter with quenching correction after addition of 45 μl of microscint 40 (Canberra Packard S. A., Zürich, Switzerland) and shaking for 20 min.

T1 sequence (P41594 other isoform, or with tags, fused parts or gaps): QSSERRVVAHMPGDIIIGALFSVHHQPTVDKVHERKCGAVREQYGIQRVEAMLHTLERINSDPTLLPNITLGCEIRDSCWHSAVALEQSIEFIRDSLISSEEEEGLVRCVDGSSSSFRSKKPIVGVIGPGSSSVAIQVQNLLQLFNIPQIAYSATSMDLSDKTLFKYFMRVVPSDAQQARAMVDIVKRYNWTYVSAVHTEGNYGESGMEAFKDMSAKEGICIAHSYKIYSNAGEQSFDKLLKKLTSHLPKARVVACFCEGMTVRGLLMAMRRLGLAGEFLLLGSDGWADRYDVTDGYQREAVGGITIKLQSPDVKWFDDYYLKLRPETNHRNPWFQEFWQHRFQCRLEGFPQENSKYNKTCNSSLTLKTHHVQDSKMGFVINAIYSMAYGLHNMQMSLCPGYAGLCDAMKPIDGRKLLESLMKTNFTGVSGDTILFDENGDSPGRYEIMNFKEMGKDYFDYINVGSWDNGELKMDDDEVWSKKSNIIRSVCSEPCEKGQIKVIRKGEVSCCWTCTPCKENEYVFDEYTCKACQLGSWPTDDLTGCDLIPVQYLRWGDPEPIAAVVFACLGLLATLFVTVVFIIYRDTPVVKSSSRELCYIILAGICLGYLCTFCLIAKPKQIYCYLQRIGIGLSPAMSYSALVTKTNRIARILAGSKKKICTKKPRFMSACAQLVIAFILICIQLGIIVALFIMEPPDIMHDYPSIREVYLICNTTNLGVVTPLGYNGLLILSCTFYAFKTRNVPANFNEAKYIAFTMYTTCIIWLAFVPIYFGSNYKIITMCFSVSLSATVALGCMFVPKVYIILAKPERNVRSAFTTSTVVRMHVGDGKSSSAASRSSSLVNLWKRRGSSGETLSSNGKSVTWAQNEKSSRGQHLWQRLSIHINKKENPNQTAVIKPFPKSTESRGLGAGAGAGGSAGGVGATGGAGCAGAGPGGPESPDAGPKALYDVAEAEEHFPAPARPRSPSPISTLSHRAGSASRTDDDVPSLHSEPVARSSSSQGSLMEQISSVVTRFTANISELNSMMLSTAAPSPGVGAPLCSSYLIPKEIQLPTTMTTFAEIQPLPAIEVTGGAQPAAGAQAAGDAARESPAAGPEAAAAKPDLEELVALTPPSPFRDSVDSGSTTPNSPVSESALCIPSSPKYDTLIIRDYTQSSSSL

Row | SMILES | EC50 (nM) mGlu5 PAM assay [1] | Activity profile [1] | Ki [2] [nM] | mGlu5 PAM EC50 [nM] [1] | also measured
1 | CC1(C)COCCN1C(=O)c1ccc(C#Cc2cccc(F)c2)cn1 [Example 1, (3,3-Dimethyl-morpholin-4-yl)-[5-(3-fluoro-phenylethynyl)-pyridin-2-yl]-methanone] | inactive | NAM | 72 |  | 
2 | O=C(c1ccc(C#Cc2cccc(Cl)c2)cn1)N1CCOCC1 [Example 2, [5-(3-Chloro-phenylethynyl)-pyridin-2-yl-morpholin-4-yl]-methanone] | inactive |  |  |  | 
3 | CC1(C)COCCN1C(=O)c1ccc(C#Cc2cccc(Cl)c2)cn1 [Example 3, (3,3-Dimethyl-morpholin-4-yl)-[5-(3-chloro-phenylethynyl)-pyridin-2-yl]-methanone] | inactive | NAM | 23 |  | 
4 | CC1(C)COCCN1C(=O)c1ncc(C#Cc2cccc(Cl)c2)cn1 [Example 4, (3,3-Dimethyl-morpholin-4-yl)-[5-(3-chloro-phenylethynyl)-pyrimidin-2-yl]-methanone] | inactive | NAM | 67 |  | 
5 | CC1(C)CN(C(=O)c2ccc(C#Cc3cccc(F)c3)cn2)CCO1 [Ref. 1 Ex. 35, reference compound] |  | PAM | 201 |  | 
6 | CC1(C)CCCN(C(=O)c2ncc(C#Cc3ccccc3)cn2)C1 [Ref. 1 Ex. 46, reference compound] |  | PAM | 315 |  | 
7 | CC1(C)CN(C(=O)c2ccc(C#Cc3cccc(F)c3)cn2)CCO1 [drawing 3] |  |  |  |  | Efficacy [%] [1]: 57%
8 | CC1(C)CCCN(C(=O)c2ncc(C#Cc3ccccc3)cn2)C1 [drawing 4] |  |  |  |  | Efficacy [%] [1]: 59%
9 | CC1(C)COCCN1C(=O)c1ccc(C#Cc2cccc(F)c2)cn1 [drawing 5] |  |  |  | inactive | 
10 | O=C(c1ccc(C#Cc2cccc(Cl)c2)cn1)N1CCOCC1 [drawing 6] |  |  |  | inactive | 
11 | CC1(C)COCCN1C(=O)c1ccc(C#Cc2cccc(Cl)c2)cn1 [drawing 7] |  |  |  | inactive | 
12 | CC1(C)COCCN1C(=O)c1ncc(C#Cc2cccc(Cl)c2)cn1 [drawing 8] |  |  |  | inactive | 
